{"source": "patent US20230406850A1", "about": "“CRYSTALLINE FORM OF HETEROCYCLIC COMPOUND, PREPARATION METHOD THEREFOR AND APPLICATION THEREOF” (WUHAN LL SCIENCE AND TECHNOLOGY DEVELOPMENT CO., LTD., priority 2020, published 2023)", "key": {"[1]": {"assay": "Competitive slurrying experiment of crystalline forms I and V", "type": "physicochemical", "conditions": "acetone, ethanol, room temperature and 60° C., three days", "experimental": "Competitive slurrying experiment was carried out: the same amount of crystalline forms I and V were weighed and mixed evenly, then XRPD was tested, and the results were used as T0 of competitive slurrying experiment. The mixture was slurried in acetone, ethanol and water at room temperature and 60° C. Three days later, solid samples were obtained by filtration, and. XRPD was tested."}, "[2]": {"assay": "Water activity experiment (slurry in acetone/water)", "type": "physicochemical", "conditions": "three days", "experimental": "Water activity experiment was carried out. Crystalline forms I and V ([…]) were slurried in a mixed solvent in acetone/water with different water contents at room temperature and 60° C. for three days, and after three days, solid sample was filtered to test XRPD, and the experimental results are as shown in Table 4."}, "[3]": {"assay": "Dynamic vapor sorption (DVS) hygroscopicity", "type": "physicochemical", "experimental": "The solid was analyzed by DVS using IGA sorp dynamic vapor sorption instrument. • Temperature: 25° C. • Gas flow: 250 mL/min. • Scan cycle: 2. • Minimum test time: 30 min. • Maximum test time: 2 hours. • Waiting for balance: 98%."}, "[4]": {"assay": "Pharmacokinetics, crystalline form I versus crystalline form V", "type": "in vivo, Beagle dog", "conditions": "10 mg/kg po, fasting, male dogs", "experimental": "Beagle dog (general grade, Beijing Masi Biotechnology Co., Ltd.) was given compound A by single oral gavage to study the pharmacokinetics of the compound in plasma. The test drug (100 mg/kg dosage, 5 mL/kg administration volume) was given by gavage, and samples were collected at 10 minutes, 30 minutes, 1 hour, 2 hours, 4 hours, 6 hours, 8 hours, 10 hours, 24 hours and 48 hours after administration: peripheral venipuncture was performed, and about 1.0 mL whole blood was collected from each animal at every time point, and blood samples were collected. Within 60 minutes after blood collection, 0.2 mL of whole blood was separated into a cryopreservation tube, and deionized water was added at a ratio of 1:1, which was mixed upside down and then frozen. The remaining samples were centrifuged at 2,000 g at 2 to 8° C. for 10 min to obtain plasma samples, and the hemolysis of each sample was recorded, and the influence on detection was evaluated, and then the color of plasma was observed and recorded on the blood collection table (“−” means no hemolysis, “+” means pink supernatant and “++” means red supernatant).\nThe concentration of compound A in plasma was determined by LC-MS/MS method (Non-GLP). The pharmacokinetic parameters were calculated by WinNonlin (Phoenix™, version 8.1) or other similar software. If applicable plasma drug concentration-time data are available, the following pharmacokinetic parameters are calculated: CL (clearance), Vss (steady-state apparent volume of distribution), T1/2 (elimination half-life), Cmax (peak concentration), Tmax (peak time), AUC (area under the concentration-time curve), MRT (mean residence time). Pharmacokinetic data were described by descriptive statistics, such as mean, standard deviation and sample size.\nComparison of crystalline form and crystalline form V is the same for 3 dogs (male), 10 mg/kg po, fasting, 0.5% CMC-Na stirring for 3 hours, and then administration (suspension), and the data obtained are as shown in Table 7."}, "[5]": {"assay": "Solubility in biological media SGF, FaSSIF and FeSSIF", "type": "physicochemical", "experimental": "Compared with other crystalline forms, crystalline forms I, III and V show good solid properties, so their solubility was tested respectively.\n10 mg of the sample was weighed, and then 2.0 mL of biological media buffer (i.e. the target concentration is 5 mg/mL) was added to form a suspension. The mixture was put in a constant temperature water bath shaker (37° C., 100 rpm), and sampled 500 μL at 0.5, 2 and 24 hours respectively. After filtration, the pH value and HPLC concentration of filtrate were tested respectively, and the solid sample obtained by filtration was tested by XRPD."}, "[6]": {"assay": "Mechanical stability test (grinding and pelleting)", "type": "physicochemical", "conditions": "grinding 2 min and 5 min", "experimental": "The mechanical stability of crystalline forms I and III were investigated by grinding and pelleting. Grinding test method: the sample to be measured was put in a mortar and grinded for 2 minutes and 5 minutes respectively, then XRPD was test, and the changes of crystalline form and crystallinity were observed. Pelleting test method: the sample was placed in the die of tablet press, kept at 40 MPa for one minute, and then the crystalline form taken out to test XRPD."}, "[7]": {"assay": "Solid-state crystal transformation between crystalline forms I and V", "type": "physicochemical", "conditions": "mixture of forms I and V, oven at 60° C. and room temperature dryer, one week"}, "[8]": {"assay": "Physical and chemical stability (stability boxes, XRPD and HPLC)", "type": "physicochemical", "experimental": "About 10 mg of crystalline forms I, III and V were placed in the stability boxes at 40° C./75% RH (open) and 60° C. (covered) for seven days, and some samples were taken out for XRPD and HPLC tests at 0 and 7 days, respectively, to investigate their physical and chemical stability."}, "[9]": {"test_system": "refractory cough", "conditions": "phase II clinical trial; cited from earlier work"}, "[10]": {"test_system": "SD rats", "assay": "Taste disorder test by double bottle method", "type": "in vivo, rat", "conditions": "single intraperitoneal injection, 15 minutes", "from_the_text": "SPF male SD rats (6-8 weeks) received 3 days of adaptive drinking water training immediately after storage, and the specific training content was that animals were kept in a single cage, and two bottles of water (both common drinking water) were placed in each cage, and during the adaptive training, water treatment was forbidden all night (the drinking water bottle was removed), and drinking water was given again at 8:30 am to 5:30 pm, and then this cycle lasted for 3 days, and the two bottles of water were changed every day, and during the whole adaptive training period, animals were ate freely. All animal water bottles were removed 20 hours before the formal experiment, and water was banned until the time of the experiment. During the formal experiment, all animals were randomly divided into groups, and the test compound or vehicle was given before the water supply was renewed, and the drug was given by single intraperitoneal injection, and the administration time was determined according to the Tmax of the test compound. Then, the animals were placed in a single cage, and given two bottles of drinking water, one bottle of ordinary drinking water and one bottle of 0.3 mM tonic water, and the water consumption of animals was observed within 15 minutes, and the quinine water consumption/ordinary water consumption was statistically analyzed, with positive compound 2 as the positive control of taste disorder."}, "[11]": {"conditions": "male, beagle, dog, plasma, po, 10 mg/kg, 0.5% CMC-Na suspension"}}}
{"smiles": "COC(=O)N1CCO[C@@H](Cc2c(-c3c(F)cc(S(N)(=O)=O)cc3F)nc3cc(Cl)ccn23)C1", "note": "[Crystalline form I, methyl (S)-2-((7-chloro-2-(2,6-difluoro-4-sulfamoylphenyl)imidazo[1,2-a]pyridin-3-yl)methyl)morpholine-4-carboxylate]", "values": [{"measurement": "relative stability inferred from competitive slurrying and water activity tests", "setting": "[1]", "value": "more stable in organic solvent system or mixed solvent with low water content (≤10%)"}, {"measurement": "The experimental results (crystalline form)", "setting": "[2]; water content 10%, 60° C.", "value": "Crystalline form VI"}, {"measurement": "The experimental results (crystalline form)", "setting": "[2]; water content 10%, RT", "value": "Crystalline form I"}, {"measurement": "The experimental results (crystalline form)", "setting": "[2]; water content 50%, 60° C.", "value": "Crystalline form IV"}, {"measurement": "The experimental results (crystalline form)", "setting": "[2]; water content 50%, RT", "value": "Crystalline form IV"}, {"measurement": "The experimental results (crystalline form)", "setting": "[2]; water content 90%, 60° C.", "value": "Crystalline form IV"}, {"measurement": "The experimental results (crystalline form)", "setting": "[2]; water content 90%, RT", "value": "Crystalline form IV"}, {"measurement": "XRPD before and after the DVS test", "setting": "[3]", "value": "remains unchanged"}, {"measurement": "relative humidity above which transformed into hydrate of crystalline form IV", "setting": "[3]", "value": "higher than 40 % RH"}, {"measurement": "DVS pattern, behaviour in words", "setting": "[3]; 25° C.", "value": "increases sharply"}, {"measurement": "hygroscopicity (DVS)", "setting": "[3]; 80% RH, 25° C.", "value": 6.8, "unit": "%"}, {"measurement": "AUC (crystalline form I):AUC (crystalline form V)", "setting": "[4]", "value": 300.53, "unit": "%"}, {"measurement": "AUClast", "setting": "[4]; 0.5% CMC-Na suspension, plasma", "value": 7926.33, "unit": "ng·h/mL"}, {"measurement": "Cmax", "setting": "[4]; 0.5% CMC-Na suspension, plasma", "value": 991.33, "unit": "ng/mL"}, {"measurement": "F", "setting": "[4]; 0.5% CMC-Na suspension, plasma", "value": 35.2, "unit": "%"}, {"measurement": "T1/2", "setting": "[4]; 0.5% CMC-Na suspension, plasma", "value": 11.91, "unit": "h"}, {"measurement": "Tmax", "setting": "[4]; 0.5% CMC-Na suspension, plasma", "value": 2.00, "unit": "h"}, {"measurement": "AUC(0-inf)", "setting": "[4]; [11]", "value": 8940, "unit": "ng·h/mL"}, {"measurement": "MRT last", "setting": "[4]; [11]", "value": 8.11, "unit": "h"}, {"measurement": "crystalline form during the solubility test", "setting": "[5]; FaSSIF and FeSSIF buffer", "value": "transformed into hydrate of crystalline form IV"}, {"measurement": "pH of filtrate", "setting": "[5]; FaSSIF, 0.5 h", "value": 6.4}, {"measurement": "Solubility", "setting": "[5]; FaSSIF, 0.5 h, 37° C.", "value": 26, "unit": "µg/mL"}, {"measurement": "pH of filtrate", "setting": "[5]; FaSSIF, 2 h", "value": 6.4}, {"measurement": "Solubility", "setting": "[5]; FaSSIF, 2 h, 37° C.", "value": 25, "unit": "µg/mL"}, {"measurement": "pH of filtrate", "setting": "[5]; FaSSIF, 24 h", "value": 6.4}, {"measurement": "Solubility", "setting": "[5]; FaSSIF, 24 h, 37° C.", "value": 34, "unit": "µg/mL"}, {"measurement": "solubility at 0.5 h", "setting": "[5]; FeSSIF, 37 °C, fessif, thermodynamic from solid, FeSSIF, 0.5 h, 37° C., read-out: Solubility", "value": 72, "unit": "µg/mL"}, {"measurement": "solubility at 2 h", "setting": "[5]; FeSSIF, 37 °C, fessif, thermodynamic from solid, FeSSIF, 2 h, 37° C., read-out: Solubility", "value": 83, "unit": "µg/mL"}, {"measurement": "solubility at 24 h", "setting": "[5]; FeSSIF, 37 °C, thermodynamic from solid, 24 h", "value": 107, "unit": "µg/mL"}, {"measurement": "pH of filtrate", "setting": "[5]; FeSSIF, 0.5 h", "value": 5.0}, {"measurement": "pH of filtrate", "setting": "[5]; FeSSIF, 2 h", "value": 5.1}, {"measurement": "pH of filtrate", "setting": "[5]; FeSSIF, 24 h", "value": 5.1}, {"measurement": "pH of filtrate", "setting": "[5]; SGF, 0.5 h", "value": 1.2}, {"measurement": "pH of filtrate", "setting": "[5]; SGF, 2 h", "value": 1.3}, {"measurement": "pH of filtrate", "setting": "[5]; SGF, 24 h", "value": 1.2}, {"measurement": "crystalline form and crystallinity after grinding", "setting": "[6]", "value": "decreased significantly"}, {"measurement": "mutual crystal transformation in solid state", "setting": "[7]", "value": "no mutual crystal transformation trend"}, {"measurement": "Initial purity (Peak area %)", "setting": "[8]; 0 days", "value": 99.38, "unit": "peak area %"}, {"measurement": "Purity -7 days (peak area %)", "setting": "[8]; 40° C./75% RH (open)", "value": 99.38, "unit": "peak area %"}, {"measurement": "stability conclusion in words", "setting": "[8]; 40° C./75% RH and 60° C., seven days", "value": "good chemical stability"}, {"measurement": "Purity -7 days (peak area %)", "setting": "[8]; 60° C. (covered)", "value": 99.37, "unit": "peak area %"}]}
{"smiles": "COc1cc(C(C)C)c(Oc2cnc(N)nc2N)cc1S(N)(=O)=O", "note": "[Positive compound 2, reference compound]", "values": [{"measurement": "effect on refractory cough", "setting": "[9]", "value": "good effect"}, {"measurement": "taste side effect", "setting": "[9]", "value": "taste disturbance is a serious problem"}, {"measurement": "Quinine/tap water * 100%", "setting": "[10]; 10 mg/kg", "value": 18.62, "unit": "%"}, {"measurement": "Quinine/tap water * 100%", "setting": "[10]; 20 mg/kg", "value": 34.99, "unit": "%"}]}
